# From BindingDB's records for patent US20250066370 (Deutsches Krebsforschungszentrum, 2025)
# Key:
# [1] = target: Cyclin-K/Cyclin-dependent kinase 12 (Human, UniProt Q9NYV4); assay: CDK12/CycK High ATP Kinase Assay
# Text: For the assay 50 nanoL of a 100 fold concentrated solution of the test compound in DMSO was pipetted into either a black low volume 384 well microtiter plate or a black 1536 well microtiter plate (both Greiner Bio-One, Frickenhausen, Germany), 2 microL of a solution of CDK12/CycK in aqueous assay buffer [25 millimol/L HEPES pH 7.5, 20 millimol/L MgCl2, 5 millimol/L β-glycerophosphate, 2 millimol/L EGTA, 1.0 millimol/L dithiothreitol, 0.01% (v/v) Nonidet-P40 (Sigma), 0.01% (w/v) bovine serum albumin] were added and the mixture was incubated for 15 min at 22° C. to allow pre-binding of the test compounds to the enzyme before the start of the kinase reaction. Then the kinase reaction was started by the addition of 3 microL of a solution ATP (3.33 millimol/L=>final conc. in the 5 microL assay volume is 2 millimol/L) and substrate (1.67 micromol/L=>final conc. in the 5 microL assay volume is 1 micromol/L) in assay buffer and the resulting mixture was incubated for a reaction time of 60 min at 22° C. The concentration of CDK12/CycK was adjusted depending of the activity of the enzyme lot and was chosen appropriate to have the assay in the linear range, typical concentrations were about 0.75 nanomol/L. The reaction was stopped by the addition of 3 microL of a solution of TR-FRET detection reagents (125 nanomol/L streptavidine-XL665 [Cisbio Bioassays, Codolet, France] and 0.67 nanomol/L anti-Phospho-c-Myc (Ser 62) (E1J4K)-antibody from Cell Signalling [#13748] and 2 nanomol/L LANCE EU-W1024 labeled anti-rabbit IgG antibody [Perkin-Elmer, product no. 0083]) in an aqueous EDTA-solution (133 millimol/L EDTA, 0.27% (w/v) bovine serum albumin in 66.7 millimol/L HEPES pH 7.5).The resulting mixture was incubated 1 h at 22° C. to allow the formation of complex between the phosphorylated biotinylated peptide and the detection reagents. Subsequently the amount of phosphorylated substrate was evaluated by measurement of the resonance energy transfer from the Eu-chelate to the streptavidine-XL. Therefore, the fluorescence emissions at 620 nm and 665 nm after excitation at 350 nm was measured in a TR-FRET reader, e.g. a Pherastar FS (BMG Labtechnologies, Offenburg, Germany) or a Viewlux (Perkin-Elmer).
# [2] = target: Cyclin-dependent kinase 2/G1/S-specific cyclin-E1 (Homo sapiens, UniProt P24941); assay: CDK2/CycE Kinase Assay
# Protocol: (§1) For the assay 50 nanoL of a 100 fold concentrated solution of the test compound in DMSO was pipetted into a black low volume 384 well microtiter plate or a black 1536 well microtiter plate (both Greiner Bio-One, Frickenhausen, Germany), 2 microL of a solution of CDK2/CycE in aqueous assay buffer [50 millimol/L Tris/HCl PH 8.0, 10 millimol/L MgCl2, 1.0 millimol/L dithiothreitol, 0.1 millimol/L sodium ortho-vanadate, 0.01% (v/v) Nonidet-P40 (Sigma)] were added and the mixture was incubated for 15 min at 22° C. to allow pre-binding of the test compounds to the enzyme before the start of the kinase reaction. Then the kinase reaction was started by the addition of 3 microL of a solution of adenosine-tri-phosphate (ATP, 3.33 millimol/L=>final conc. in the 5 microL assay volume is 2 millimol/L) and substrate (1.25 micromol/L=>final conc. in the 5 microL assay volume is 0.75 micromol/L) in assay buffer and the resulting mixture was incubated for a reaction time of 25 min at 22° C. The concentration of CDK2/CycE was adjusted depending of the activity of the enzyme lot and was chosen appropriate to have the assay in the linear range, typical concentrations were in the range of 10 ng/ml. The reaction was stopped by the addition of 3 microL of a solution of TR-FRET detection reagents (0.333 micromol/L streptavidine-XL665 [Cisbio Bioassays, Codolet, France] and 1.67 nanomol/L anti-RB (pSer807/pSer811)-antibody from BD Pharmingen [#558389] and 2 nanomol/L LANCE EU-W1024 labeled anti-mouse IgG antibody [Perkin-Elmer, product no. AD0077, as an alternative a Terbium-cryptate-labeled anti-mouse IgG antibody from Cisbio Bioassays can be used]) in an aqueous EDTA-solution (167 millimol/L EDTA, 0.2% (w/v) bovine serum albumin in 100 millimol/L HEPES pH 7.5).The resulting mixture was incubated 1 h at 22° C. to allow the formation of complex between the phosphorylated biotinylated peptide and the detection reagents. Subsequently the amount of phosphorylated substrate was evaluated by measurement of the resonance energy transfer from the Eu-chelate to the streptavidine-XL. Therefore, the fluorescence emissions at 620 nm and 665 nm after excitation at 350 nm was measured in a TR-FRET reader, e.g. a Pherastar (BMG Labtechnologies, Offenburg, Germany) or a Viewlux (Perkin-Elmer).
# [3] = target: Cyclin-T1/Cyclin-dependent kinase 9 (Homo sapiens, UniProt P50750); assay: CDK9/CycT1 High ATP Kinase Assay
# Protocol: as §1, with “into either” for “into”, “CDK9/CycT1” for “CDK2/CycE”, “3.3” for “3.33”, “0.5 microg/ml. […]” for “10 ng/ml. The reaction was stopped by the addition of 3 microL of a solution of TR-FRET detection reagents (0.333 micromol/L streptavidine-XL665 [Cisbio Bioassays, Codolet, France] and 1.67 nanomol/L anti-RB (pSer807/pSer811)-antibody from BD Pharmingen [#558389] and 2 nanomol/L LANCE EU-W1024 labeled anti-mouse IgG antibody [Perkin-Elmer, product no. AD0077, as an alternative a Terbium-cryptate-labeled anti-mouse IgG antibody from Cisbio Bioassays can be used]) in an aqueous EDTA-solution (167 millimol/L EDTA, 0.2% (w/v) bovine serum albumin in 100 millimol/L HEPES pH 7.5).The resulting mixture was incubated 1 h at 22° C. to allow the formation of complex between the phosphorylated biotinylated peptide and the detection reagents.”
# Sequence of Cyclin-K/Cyclin-dependent kinase 12 (O75909 whole entry): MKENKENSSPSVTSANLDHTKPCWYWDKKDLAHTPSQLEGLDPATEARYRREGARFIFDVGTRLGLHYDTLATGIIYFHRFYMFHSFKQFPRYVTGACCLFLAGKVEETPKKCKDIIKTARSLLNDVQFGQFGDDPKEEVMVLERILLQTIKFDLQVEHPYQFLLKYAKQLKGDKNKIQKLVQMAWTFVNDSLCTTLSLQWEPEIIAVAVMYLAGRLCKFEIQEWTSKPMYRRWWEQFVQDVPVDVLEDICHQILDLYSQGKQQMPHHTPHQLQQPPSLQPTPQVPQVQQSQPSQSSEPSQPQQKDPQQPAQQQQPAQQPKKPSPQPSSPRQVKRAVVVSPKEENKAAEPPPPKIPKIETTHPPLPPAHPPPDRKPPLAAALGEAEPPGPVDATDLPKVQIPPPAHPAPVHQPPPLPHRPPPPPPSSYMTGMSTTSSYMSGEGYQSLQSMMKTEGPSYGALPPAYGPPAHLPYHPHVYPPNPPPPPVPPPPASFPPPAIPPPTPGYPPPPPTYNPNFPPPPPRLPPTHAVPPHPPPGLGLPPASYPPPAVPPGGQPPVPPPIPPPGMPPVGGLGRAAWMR
# Sequence of Cyclin-K/Cyclin-dependent kinase 12 (Q9NYV4 whole entry): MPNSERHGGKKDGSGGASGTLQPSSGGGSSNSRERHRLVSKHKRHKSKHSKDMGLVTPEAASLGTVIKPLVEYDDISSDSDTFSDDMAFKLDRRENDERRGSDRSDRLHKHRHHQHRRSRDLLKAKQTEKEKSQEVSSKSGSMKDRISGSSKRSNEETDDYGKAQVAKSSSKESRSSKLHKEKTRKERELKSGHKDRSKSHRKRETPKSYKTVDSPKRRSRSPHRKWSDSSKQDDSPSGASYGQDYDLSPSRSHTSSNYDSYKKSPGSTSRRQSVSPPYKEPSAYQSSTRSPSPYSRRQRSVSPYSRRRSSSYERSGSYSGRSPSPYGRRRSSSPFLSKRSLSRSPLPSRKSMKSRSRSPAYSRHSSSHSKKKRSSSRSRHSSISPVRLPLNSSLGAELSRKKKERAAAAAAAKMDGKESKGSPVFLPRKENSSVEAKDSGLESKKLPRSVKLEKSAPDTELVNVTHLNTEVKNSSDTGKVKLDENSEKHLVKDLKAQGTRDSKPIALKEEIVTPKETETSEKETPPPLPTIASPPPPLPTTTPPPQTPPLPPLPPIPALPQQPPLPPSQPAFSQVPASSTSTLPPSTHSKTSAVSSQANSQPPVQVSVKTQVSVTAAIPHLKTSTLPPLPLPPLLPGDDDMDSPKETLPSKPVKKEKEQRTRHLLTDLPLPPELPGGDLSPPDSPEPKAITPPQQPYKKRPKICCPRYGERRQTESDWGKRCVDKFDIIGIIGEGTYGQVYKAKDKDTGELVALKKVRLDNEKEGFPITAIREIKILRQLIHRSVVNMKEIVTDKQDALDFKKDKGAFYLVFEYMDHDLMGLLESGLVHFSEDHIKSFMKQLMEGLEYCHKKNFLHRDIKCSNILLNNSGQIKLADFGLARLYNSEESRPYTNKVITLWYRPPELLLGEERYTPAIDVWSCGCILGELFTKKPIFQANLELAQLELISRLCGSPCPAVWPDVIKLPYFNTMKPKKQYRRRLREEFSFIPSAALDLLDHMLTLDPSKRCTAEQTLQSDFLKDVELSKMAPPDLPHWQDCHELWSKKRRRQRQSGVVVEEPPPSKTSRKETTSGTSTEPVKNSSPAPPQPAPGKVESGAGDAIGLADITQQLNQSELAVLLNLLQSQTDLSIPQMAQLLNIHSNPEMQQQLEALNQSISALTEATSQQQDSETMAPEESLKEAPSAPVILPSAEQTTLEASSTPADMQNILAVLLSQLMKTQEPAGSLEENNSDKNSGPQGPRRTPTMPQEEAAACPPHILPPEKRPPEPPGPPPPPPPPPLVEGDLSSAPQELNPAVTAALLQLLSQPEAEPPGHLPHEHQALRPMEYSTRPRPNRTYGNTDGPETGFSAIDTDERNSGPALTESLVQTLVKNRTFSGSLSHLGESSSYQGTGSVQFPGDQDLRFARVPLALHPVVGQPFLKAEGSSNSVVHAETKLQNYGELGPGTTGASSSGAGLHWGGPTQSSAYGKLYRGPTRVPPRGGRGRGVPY
# Sequence of Cyclin-T1/Cyclin-dependent kinase 9 (O60563 whole entry): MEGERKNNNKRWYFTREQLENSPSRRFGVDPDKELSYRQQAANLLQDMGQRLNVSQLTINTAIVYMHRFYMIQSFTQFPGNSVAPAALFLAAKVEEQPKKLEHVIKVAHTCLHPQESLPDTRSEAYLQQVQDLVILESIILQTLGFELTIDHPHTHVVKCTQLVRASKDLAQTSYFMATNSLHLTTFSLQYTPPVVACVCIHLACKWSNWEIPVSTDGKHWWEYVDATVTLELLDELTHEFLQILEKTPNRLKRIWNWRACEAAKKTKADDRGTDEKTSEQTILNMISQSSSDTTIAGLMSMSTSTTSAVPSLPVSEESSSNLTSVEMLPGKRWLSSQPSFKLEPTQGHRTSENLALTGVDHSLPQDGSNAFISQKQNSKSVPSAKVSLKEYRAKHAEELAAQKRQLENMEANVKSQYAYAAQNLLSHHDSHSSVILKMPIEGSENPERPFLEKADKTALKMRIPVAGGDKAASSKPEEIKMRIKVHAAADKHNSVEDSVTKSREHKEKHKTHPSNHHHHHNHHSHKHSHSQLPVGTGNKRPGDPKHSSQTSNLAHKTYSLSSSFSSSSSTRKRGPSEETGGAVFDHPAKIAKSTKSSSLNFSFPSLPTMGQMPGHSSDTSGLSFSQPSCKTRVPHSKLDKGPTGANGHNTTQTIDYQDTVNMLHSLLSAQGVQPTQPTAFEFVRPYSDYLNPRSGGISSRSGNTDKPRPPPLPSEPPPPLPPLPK
# Sequence of Cyclin-T1/Cyclin-dependent kinase 9 (P50750 whole entry): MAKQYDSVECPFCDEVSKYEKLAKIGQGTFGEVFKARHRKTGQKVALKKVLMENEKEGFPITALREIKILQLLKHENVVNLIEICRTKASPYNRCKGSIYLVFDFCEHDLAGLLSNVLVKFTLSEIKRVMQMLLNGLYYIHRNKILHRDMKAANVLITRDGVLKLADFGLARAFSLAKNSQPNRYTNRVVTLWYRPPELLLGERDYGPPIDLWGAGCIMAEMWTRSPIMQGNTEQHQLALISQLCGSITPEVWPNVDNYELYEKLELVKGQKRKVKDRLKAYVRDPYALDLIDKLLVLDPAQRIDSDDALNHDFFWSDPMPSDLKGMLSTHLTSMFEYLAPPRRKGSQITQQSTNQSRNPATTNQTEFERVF
IC50 [1],IC50 [2],IC50 [3],SMILES
79.1 nM,4050 nM,–,"FC(F)(F)c1ccc(-c2nnc(CNc3nc(N4CCOCC4)nc4c(C(F)(F)F)cnn34)[nH]2)cn1 [US20250066370, Example 16]"
12.3 nM,16300 nM,2780 nM,"COc1ccc(-c2cnc(CNc3nc(N4CCOCC4)nn4c(C(F)(F)F)cnc34)[nH]2)cc1 [US20250066370, Example 13]"
5.96 nM,6720 nM,–,"FC(F)(F)Oc1ccc(-c2nnc(CNc3nc(N4CCOCC4)nc4c(C(F)(F)F)cnn34)[nH]2)cn1 [US20250066370, Example 17]"
15.1 nM,7820 nM,3560 nM,"FC(F)(F)c1ccc(-c2cnc(CNc3nc(N4CCOCC4)nc4c(C(F)(F)F)cnn34)[nH]2)cn1 [US20250066370, Example 24]"
41.6 nM,> 5710 nM,340 nM,"COc1ccc(-c2nnc(CNc3nc(N4CCOCC4)nn4c(C(F)(F)F)cnc34)[nH]2)cn1 [US20250066370, Example 18]"
